Measured values reported in patent publication US20260014232A1, “Pharmaceutical Composition of GLP-1 and GIP Receptor Dual Agonist and Use Thereof” (Jiangsu Hengrui Pharmaceuticals Co., Ltd., priority 2021, published 2026).
Starred links: 1 amine or outer side, 2 acyl side, 3 side chain; linkers in the order of their positions; H or OH if unused. Non-standard residues stand in square brackets, D forms with d. Residues, ends and D or L forms follow the SMILES beside them. Groups on a side chain read outwards from the residue. *: point of attachment. C20 diacid = O=C(O)CCCCCCCCCCCCCCCCCCC(=O)*; γGlu = O=C(O)[C@H](CCC(=O)[*:2])N[*:1]; AEEA = NCCOCCOCC(=O)O; Aib = CC(C)(N)C(=O)O

Assays:
[1] = Body weight of diet-induced-obesity mice after subcutaneous administration; format: in vivo, C57BL/6 mice; settings: for rate of body weight change: DIO mice
Protocol: (§1) High-fat food-induced-obesity male C57BL/6 mice (weighing 35-55 g, aged 10-12 weeks, purchased from Shanghai Jiesijie Laboratory Animal Co., Ltd.) were tested. […] According to the experimental design, the body weight of each mouse was measured and recorded on day 0, day 3, day 6, and so on to day 27, the average body weight of each group of mice was calculated, and body weight change curves were plotted by taking the body weight on the first day as the standard. At the end, the fat and other visceral organs of each part of the mice were taken out and weighed, and the viscera/brain ratio for fat in each part of each mouse was calculated. The effect of the drug on the fat was determined by comparing the change in the viscera/brain ratio for fat of different parts of each group of mice.

[2] = Viscera/brain ratio for fat mass in diet-induced-obesity mice; format: in vivo, C57BL/6 mice; settings: DIO mice; for viscera/brain ratio for fat mass, Epididymal fat / viscera/brain ratio for fat mass, Inguinal fat / viscera/brain ratio for fat mass, Mesenteric fat / viscera/brain ratio for fat mass, Perirenal fat / viscera/brain ratio for fat mass, Scapular fat / viscera/brain ratio for fat mass, Subcutaneous fat: X ± s
Protocol: as §1

CC[C@H](C)[C@H](NC(=O)[C@H](CCCCN)NC(=O)[C@H](CCC(=O)O)NC(=O)[C@H](CCCCNC(=O)COCCOCCNC(=O)COCCOCCNC(=O)CC[C@H](NC(=O)CCCCCCCCCCCCCCCCCCC(=O)O)C(=O)O)NC(=O)[C@H](Cc1ccc(O)cc1)NC(=O)[C@@H](NC(=O)[C@H](CO)NC(=O)[C@H](Cc1ccc(O)cc1)NC(=O)[C@H](CC(=O)O)NC(=O)[C@H](CO)NC(=O)[C@@H](NC(=O)[C@H](Cc1ccccc1)NC(=O)[C@@H](NC(=O)CNC(=O)[C@H](CCC(=O)O)NC(=O)C(C)(C)NC(=O)[C@@H](N)Cc1ccc(O)cc1)[C@@H](C)O)[C@@H](C)O)[C@@H](C)CC)C(=O)N[C@@H](C)C(=O)N[C@@H](C)C(=O)N[C@@H](CCC(N)=O)C(=O)N[C@@H](CCC(=O)O)C(=O)N[C@@H](Cc1ccccc1)C(=O)N[C@H](C(=O)N[C@@H](CC(N)=O)C(=O)N[C@@H](Cc1c[nH]c2ccccc12)C(=O)N[C@@H](CC(C)C)C(=O)N[C@@H](CC(C)C)C(=O)N[C@@H](C)C(=O)NCC(=O)NCC(=O)N1CCC[C@H]1C(=O)N[C@@H](CO)C(=O)N[C@@H](CO)C(=O)NCC(=O)N[C@@H](C)C(=O)N1CCC[C@H]1C(=O)N1CCC[C@H]1C(=O)N1CCC[C@H]1C(=O)N[C@@H](CO)C(N)=O)C(C)C [Compound 18#] (H-Y[Aib]EGTFTSDYSIYK([AEEA-AEEA-γGlu-C20 diacid])EKIAAQEFVNWLLAGGPSSGAPPPS-NH2)
rate of body weight change ([1]; 3 nmol/kg s.c. every 3 days, day 0 (before administration)): 0%
rate of body weight change ([1]; 3 nmol/kg s.c. every 3 days, day 1): −5%
rate of body weight change ([1]; 3 nmol/kg s.c. every 3 days, day 2): −6.3%
rate of body weight change ([1]; 3 nmol/kg s.c. every 3 days, day 3): −5.8%
rate of body weight change ([1]; 3 nmol/kg s.c. every 3 days, day 4): −9.1%
rate of body weight change ([1]; 3 nmol/kg s.c. every 3 days, day 5): −10.3%
rate of body weight change ([1]; 3 nmol/kg s.c. every 3 days, day 6): −10%
rate of body weight change ([1]; 3 nmol/kg s.c. every 3 days, day 7): −13%
rate of body weight change ([1]; 3 nmol/kg s.c. every 3 days, day 8): −13.9%
rate of body weight change ([1]; 3 nmol/kg s.c. every 3 days, day 9): −13.9%
rate of body weight change ([1]; 3 nmol/kg s.c. every 3 days, day 10): −16.6%
rate of body weight change ([1]; 3 nmol/kg s.c. every 3 days, day 11): −16.4%
rate of body weight change ([1]; 3 nmol/kg s.c. every 3 days, day 12): −15.7%
rate of body weight change ([1]; 3 nmol/kg s.c. every 3 days, day 13): −18.2%
rate of body weight change ([1]; 3 nmol/kg s.c. every 3 days, day 14): −17.1%
rate of body weight change ([1]; 3 nmol/kg s.c. every 3 days, day 15): −15.7%
rate of body weight change ([1]; 3 nmol/kg s.c. every 3 days, day 16): −18.6%
rate of body weight change ([1]; 3 nmol/kg s.c. every 3 days, day 17): −18.3%
rate of body weight change ([1]; 3 nmol/kg s.c. every 3 days, day 18): −17.9%
rate of body weight change ([1]; 3 nmol/kg s.c. every 3 days, day 19): −20.5%
rate of body weight change ([1]; 3 nmol/kg s.c. every 3 days, day 20): −19.8%
rate of body weight change ([1]; 3 nmol/kg s.c. every 3 days, day 21): −17.8%
rate of body weight change ([1]; 3 nmol/kg s.c. every 3 days, day 22): −19.3%
rate of body weight change ([1]; 3 nmol/kg s.c. every 3 days, day 23): −19.1%
rate of body weight change ([1]; 3 nmol/kg s.c. every 3 days, day 24): −17.3%
rate of body weight change ([1]; 3 nmol/kg s.c. every 3 days, day 25): −19.9%
rate of body weight change ([1]; 3 nmol/kg s.c. every 3 days, day 26): −18.8%
rate of body weight change ([1]; 3 nmol/kg s.c. every 3 days, day 27): −16.1%
rate of body weight change ([1]; 3 nmol/kg s.c. every 3 days, day 28): −19.2%
rate of body weight change ([1]; 10 nmol/kg s.c. every 3 days, day 0 (before administration)): 0%
rate of body weight change ([1]; 10 nmol/kg s.c. every 3 days, day 1): −6.2%
rate of body weight change ([1]; 10 nmol/kg s.c. every 3 days, day 2): −8.6%
rate of body weight change ([1]; 10 nmol/kg s.c. every 3 days, day 3): −9.4%
rate of body weight change ([1]; 10 nmol/kg s.c. every 3 days, day 4): −12.7%
rate of body weight change ([1]; 10 nmol/kg s.c. every 3 days, day 5): −14.5%
rate of body weight change ([1]; 10 nmol/kg s.c. every 3 days, day 6): −15%
rate of body weight change ([1]; 10 nmol/kg s.c. every 3 days, day 7): −18.3%
rate of body weight change ([1]; 10 nmol/kg s.c. every 3 days, day 8): −20.1%
rate of body weight change ([1]; 10 nmol/kg s.c. every 3 days, day 9): −20.3%
rate of body weight change ([1]; 10 nmol/kg s.c. every 3 days, day 10): −23.4%
rate of body weight change ([1]; 10 nmol/kg s.c. every 3 days, day 11): −23.9%
rate of body weight change ([1]; 10 nmol/kg s.c. every 3 days, day 12): −23.5%
rate of body weight change ([1]; 10 nmol/kg s.c. every 3 days, day 13): −26.4%
rate of body weight change ([1]; 10 nmol/kg s.c. every 3 days, day 14): −25.1%
rate of body weight change ([1]; 10 nmol/kg s.c. every 3 days, day 15): −23.4%
rate of body weight change ([1]; 10 nmol/kg s.c. every 3 days, day 16): −26.6%
rate of body weight change ([1]; 10 nmol/kg s.c. every 3 days, day 17): −25.7%
rate of body weight change ([1]; 10 nmol/kg s.c. every 3 days, day 18): −24.6%
rate of body weight change ([1]; 10 nmol/kg s.c. every 3 days, day 19): −27.5%
rate of body weight change ([1]; 10 nmol/kg s.c. every 3 days, day 20): −27.3%
rate of body weight change ([1]; 10 nmol/kg s.c. every 3 days, day 21): −24.8%
rate of body weight change ([1]; 10 nmol/kg s.c. every 3 days, day 22): −28.1%
rate of body weight change ([1]; 10 nmol/kg s.c. every 3 days, day 23): −27.1%
rate of body weight change ([1]; 10 nmol/kg s.c. every 3 days, day 24): −26%
rate of body weight change ([1]; 10 nmol/kg s.c. every 3 days, day 25): −28.5%
rate of body weight change ([1]; 10 nmol/kg s.c. every 3 days, day 26): −27.8%
rate of body weight change ([1]; 10 nmol/kg s.c. every 3 days, day 27): −24.8%
rate of body weight change ([1]; 10 nmol/kg s.c. every 3 days, day 28): −28.2%
rate of body weight change ([1]; 100 nmol/kg s.c. every 3 days, day 0 (before administration)): 0%
rate of body weight change ([1]; 100 nmol/kg s.c. every 3 days, day 1): −6.3%
rate of body weight change ([1]; 100 nmol/kg s.c. every 3 days, day 2): −10.9%
rate of body weight change ([1]; 100 nmol/kg s.c. every 3 days, day 3): −13.2%
rate of body weight change ([1]; 100 nmol/kg s.c. every 3 days, day 4): −15.7%
rate of body weight change ([1]; 100 nmol/kg s.c. every 3 days, day 5): −19.2%
rate of body weight change ([1]; 100 nmol/kg s.c. every 3 days, day 6): −21.8%
rate of body weight change ([1]; 100 nmol/kg s.c. every 3 days, day 7): −24.7%
rate of body weight change ([1]; 100 nmol/kg s.c. every 3 days, day 8): −27.6%
rate of body weight change ([1]; 100 nmol/kg s.c. every 3 days, day 9): −29.6%
rate of body weight change ([1]; 100 nmol/kg s.c. every 3 days, day 10): −31.6%
rate of body weight change ([1]; 100 nmol/kg s.c. every 3 days, day 11): −33.7%
rate of body weight change ([1]; 100 nmol/kg s.c. every 3 days, day 12): −34.4%
rate of body weight change ([1]; 100 nmol/kg s.c. every 3 days, day 13): −35.6%
rate of body weight change ([1]; 100 nmol/kg s.c. every 3 days, day 14): −36.7%
rate of body weight change ([1]; 100 nmol/kg s.c. every 3 days, day 15): −35.7%
rate of body weight change ([1]; 100 nmol/kg s.c. every 3 days, day 17): −38.2%
rate of body weight change ([1]; 100 nmol/kg s.c. every 3 days, day 18): −37.8%
rate of body weight change ([1]; 100 nmol/kg s.c. every 3 days, day 19): −38.5%
rate of body weight change ([1]; 100 nmol/kg s.c. every 3 days, day 20): −39%
rate of body weight change ([1]; 100 nmol/kg s.c. every 3 days, day 21): −37.4%
rate of body weight change ([1]; 100 nmol/kg s.c. every 3 days, day 22): −38.3%
rate of body weight change ([1]; 100 nmol/kg s.c. every 3 days, day 23): −38%
rate of body weight change ([1]; 100 nmol/kg s.c. every 3 days, day 24): −36.8%
rate of body weight change ([1]; 100 nmol/kg s.c. every 3 days, day 25): −38.6%
rate of body weight change ([1]; 100 nmol/kg s.c. every 3 days, day 26): −38.9%
rate of body weight change ([1]; 100 nmol/kg s.c. every 3 days, day 27): −36.8%
rate of body weight change ([1]; 100 nmol/kg s.c. every 3 days, day 28): −37.9%
body weight reduced ([1]; high-fat food-induced-obesity mice, 10 nmol/kg, day 27): more than 20.0%
viscera/brain ratio for fat mass, Epididymal fat ([2]; 3 nmol/kg): 254.6 ± 113.4 %
viscera/brain ratio for fat mass, Inguinal fat ([2]; 3 nmol/kg): 281.5 ± 140.1 %
viscera/brain ratio for fat mass, Mesenteric fat ([2]; 3 nmol/kg): 84.8 ± 41.3 %
viscera/brain ratio for fat mass, Perirenal fat ([2]; 3 nmol/kg): 159.2 ± 87.6 %
viscera/brain ratio for fat mass, Scapular fat ([2]; 3 nmol/kg): 48 ± 15.3%
viscera/brain ratio for fat mass, Subcutaneous fat ([2]; 3 nmol/kg): 129 ± 62 %
viscera/brain ratio for fat mass, Epididymal fat ([2]; 10 nmol/kg): 211.7 ± 80.7 %
viscera/brain ratio for fat mass, Inguinal fat ([2]; 10 nmol/kg): 194.4 ± 86.2 %
viscera/brain ratio for fat mass, Mesenteric fat ([2]; 10 nmol/kg): 53.3 ± 14.6 %
viscera/brain ratio for fat mass, Perirenal fat ([2]; 10 nmol/kg): 109.4 ± 57.1 %
viscera/brain ratio for fat mass, Scapular fat ([2]; 10 nmol/kg): 42.5 ± 17%
viscera/brain ratio for fat mass, Subcutaneous fat ([2]; 10 nmol/kg): 122 ± 73.2 %
viscera/brain ratio for fat mass, Epididymal fat ([2]; 100 nmol/kg): 102.9 ± 32.2 %
viscera/brain ratio for fat mass, Inguinal fat ([2]; 100 nmol/kg): 92 ± 34.5 %
viscera/brain ratio for fat mass, Mesenteric fat ([2]; 100 nmol/kg): 27.4 ± 11.1 %
viscera/brain ratio for fat mass, Perirenal fat ([2]; 100 nmol/kg): 46.6 ± 18.2 %
viscera/brain ratio for fat mass, Scapular fat ([2]; 100 nmol/kg): 32.3 ± 7%
viscera/brain ratio for fat mass, Subcutaneous fat ([2]; 100 nmol/kg): 57.1 ± 21.2 %
content of fat of each part (except scapular fat) relative to placebo ([2]; all dose test groups): significantly reduced
